# Laboratory results from patent US10450299B2, “Substituted quinazoline derivatives as DNA methyltransferase inhibitors” (Pierre Fabre Medicament, priority 2015, dated 2019).
# pEC50: −log10 of the molar value.
# Experiments:
# [1] = target: T1, human C-terminal DNMT3A (a.a. 623-908) (Homo sapiens, UniProt Q9Y6K1); assay: DNMT3A assay (restriction-based fluorescence assay); assay type: biochemical; settings: for inhibition at 1 µM: compound at 1 μM; for inhibition at 3.2 µM: compound at 3.2 μM
# T1 construct: The human C-terminal DNMT3A (a.a. 623-908); made in house
# T1 sequence (Q9Y6K1 627-912): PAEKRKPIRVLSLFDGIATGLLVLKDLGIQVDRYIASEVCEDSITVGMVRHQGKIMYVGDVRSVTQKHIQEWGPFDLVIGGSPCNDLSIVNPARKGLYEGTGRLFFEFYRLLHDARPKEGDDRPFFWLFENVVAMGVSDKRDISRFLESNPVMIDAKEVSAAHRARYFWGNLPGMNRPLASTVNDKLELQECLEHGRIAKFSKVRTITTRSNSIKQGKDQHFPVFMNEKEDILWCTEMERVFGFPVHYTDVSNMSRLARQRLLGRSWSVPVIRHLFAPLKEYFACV
# Source text: DNMT3A enzyme inhibition was adapted from the restriction-based fluorescence assay protocol described in Ceccaldi et al. (ChemBioChem 2011, 12, 1337-45). Briefly, a 5′-labelled biotin oligonucleotide is hybridized to its complementary strand labelled with 6-carboxyfluorescein at the 3′-end into a 384 well microplate (black Optiplates; Perkin Elmer) pre-coated with avidin. The duplex contains a unique CpG site overlapping with a restriction site of a methylation sensitive restriction enzyme. The human C-terminal DNMT3A (a.a. 623-908), produced as described in Gros et al. (Nucleic Acids Research 2013 41(19):e185), was added in each well (200 ng/well) and mixed with the chemical compounds at desired concentrations and freshly prepared AdoMet (20 μM final concentration) to start the reaction in a total volume of 50 μL. After 1 hour incubation at 37° C. each well were washed three times with PBS, Tween-20 0.05%, NaCl (500 mM) and three more times with PBST. Specific fluorescent signals were detected with the methylation-sensitive restriction enzyme HpyCH4IV (NEB) as described and measured on a Perkin Elmer Envision detector. The percentage of inhibition is reported. The formula used to calculate the percentage of inhibition is [(X−Y)/X]×100, where X is the signal determined in the absence of the inhibitor and Y is the signal obtained in the presence of the inhibitor. The concentration at which 50% of efficacy of inhibition is observed (EC50) was determined by analysis of a concentration range of the tested compound in triplicates. The non-linear regression fittings with sigmoidal dose-response (variable slope) were performed with GraphPad Prism 4.03 (GraphPad Software).
# [2] = test system: KG-1 human leukemia cells; assay: Anti-proliferative activity on KG-1 (ATPLite cell viability); assay type: cell-based; settings: KG-1 cells; for inhibition at 0.1 µM: compound at 0.1 μM, read-out: % proliferation inhibition 0.1 μM; for inhibition at 1 µM: compound at 1 μM, read-out: % proliferation inhibition 1 μM; for inhibition at 5 µM: compound at 5 μM, read-out: % proliferation inhibition 5 μM; for inhibition at 10 µM: compound at 10 μM, read-out: % proliferation inhibition 10 μM
# Experimental: Anti-Proliferative Activity. (on KG-1)
# KG-1 human leukemia cells were obtained from the ATCC (USA) and cultivated in RPMI 1640 medium (with HEPES and Glutamine, BE12-115F, Lonza, France) supplemented with, respectively, 20% and 15% foetal calf serum (Lonza, France), at 37° C. and under 5% CO2. To measure the anti-proliferative properties of tested molecules, 2×10^4 cells are seeded at day 0 in a 96 wells plate. The compounds to be tested, stored at −20° C. as 10^−2 M stock solution in 100% DMSO, are freshly diluted on day 1 in RPMI 1640 medium, before adding a dose range of 3.2 nM to 10 μM to the cells. This treatment is repeated on day 2 and 3, and on day 4 cell viability is assessed using the ATPLite™ kit from Perkin (ATPlite™ 1 Step Luminescence Assay System, ref 3016739), following the provider instructions. The raw data are analyzed with GraphPad Prism software (v4.03) to generate EC50 values corresponding to the compound concentrations giving 50% reduction in cell viability. The values presented are the mean results of at least two independent experiments. […]
# At the end of the experiment, cell viability was evaluated by determining the level of ATP released by viable cells.
# EC50 values were determined with curve fitting analysis method (non linear regression model with a sigmoid dose response, variable Hill slope coefficient) provided by the Prism Software (GraphPad). Results were expressed as average EC50 values (concentration of tested compound that inhibits 50% of the maximum effect for the considered compound).
# [3] = test system: luciferase reporter gene under the control of the partially methylated CMV promoter in KG-1 cell line; assay: Gene expression (CMV-Luc reactivation) in KG-1 cells; assay type: cell-based, human; settings: 24 h, induction factor vs DMSO control, mean of 3 experiments ± standard error; for Reactivation fold of luciferase gene reporter, 0.1 μM: compound at 0.1 μM; for Reactivation fold of luciferase gene reporter, 1 μM: compound at 1 μM; for Reactivation fold of luciferase gene reporter, 5 μM: compound at 5 μM; for Reactivation fold of luciferase gene reporter, 10 μM: compound at 10 μM
# Experimental: Gene Expression. (CMV-Luc Reactivation)
# KG-1 cell line, stably transfected with the luciferase Firefly (Luc+ from pGL3 by Promega) reporter gene under the control of the CMV promoter (from pEGFP-N1 by Clontech) partially methylated (50%), is seeded at 20,000 cell per well in 96-well plate. After 24 h of incubation in the presence of the compounds or the solvant DMSO, the induction of the promoter is measured by quantification of luciferase with the Brite-lite™ assay system (Perkin Elmer) according to the manufacturer protocol. The luminescence is measured on EnVision™ Multilabel Plate Reader (Perkin Elmer) and the data are expressed in induction factor compared to the DMSO control condition.
# [4] = target: T2, His-DNMT1 (182 kDa, human) (Homo sapiens, UniProt P26358); assay: DNMT1 assay (tritiated SAM Flashplate methylation assay); assay type: biochemical; settings: for inhibition at 10 µM: compound at 10 μM; for inhibition at 32 µM: compound at 32 μM
# T2 construct: His; made in house
# T2 sequence (P26358 whole entry): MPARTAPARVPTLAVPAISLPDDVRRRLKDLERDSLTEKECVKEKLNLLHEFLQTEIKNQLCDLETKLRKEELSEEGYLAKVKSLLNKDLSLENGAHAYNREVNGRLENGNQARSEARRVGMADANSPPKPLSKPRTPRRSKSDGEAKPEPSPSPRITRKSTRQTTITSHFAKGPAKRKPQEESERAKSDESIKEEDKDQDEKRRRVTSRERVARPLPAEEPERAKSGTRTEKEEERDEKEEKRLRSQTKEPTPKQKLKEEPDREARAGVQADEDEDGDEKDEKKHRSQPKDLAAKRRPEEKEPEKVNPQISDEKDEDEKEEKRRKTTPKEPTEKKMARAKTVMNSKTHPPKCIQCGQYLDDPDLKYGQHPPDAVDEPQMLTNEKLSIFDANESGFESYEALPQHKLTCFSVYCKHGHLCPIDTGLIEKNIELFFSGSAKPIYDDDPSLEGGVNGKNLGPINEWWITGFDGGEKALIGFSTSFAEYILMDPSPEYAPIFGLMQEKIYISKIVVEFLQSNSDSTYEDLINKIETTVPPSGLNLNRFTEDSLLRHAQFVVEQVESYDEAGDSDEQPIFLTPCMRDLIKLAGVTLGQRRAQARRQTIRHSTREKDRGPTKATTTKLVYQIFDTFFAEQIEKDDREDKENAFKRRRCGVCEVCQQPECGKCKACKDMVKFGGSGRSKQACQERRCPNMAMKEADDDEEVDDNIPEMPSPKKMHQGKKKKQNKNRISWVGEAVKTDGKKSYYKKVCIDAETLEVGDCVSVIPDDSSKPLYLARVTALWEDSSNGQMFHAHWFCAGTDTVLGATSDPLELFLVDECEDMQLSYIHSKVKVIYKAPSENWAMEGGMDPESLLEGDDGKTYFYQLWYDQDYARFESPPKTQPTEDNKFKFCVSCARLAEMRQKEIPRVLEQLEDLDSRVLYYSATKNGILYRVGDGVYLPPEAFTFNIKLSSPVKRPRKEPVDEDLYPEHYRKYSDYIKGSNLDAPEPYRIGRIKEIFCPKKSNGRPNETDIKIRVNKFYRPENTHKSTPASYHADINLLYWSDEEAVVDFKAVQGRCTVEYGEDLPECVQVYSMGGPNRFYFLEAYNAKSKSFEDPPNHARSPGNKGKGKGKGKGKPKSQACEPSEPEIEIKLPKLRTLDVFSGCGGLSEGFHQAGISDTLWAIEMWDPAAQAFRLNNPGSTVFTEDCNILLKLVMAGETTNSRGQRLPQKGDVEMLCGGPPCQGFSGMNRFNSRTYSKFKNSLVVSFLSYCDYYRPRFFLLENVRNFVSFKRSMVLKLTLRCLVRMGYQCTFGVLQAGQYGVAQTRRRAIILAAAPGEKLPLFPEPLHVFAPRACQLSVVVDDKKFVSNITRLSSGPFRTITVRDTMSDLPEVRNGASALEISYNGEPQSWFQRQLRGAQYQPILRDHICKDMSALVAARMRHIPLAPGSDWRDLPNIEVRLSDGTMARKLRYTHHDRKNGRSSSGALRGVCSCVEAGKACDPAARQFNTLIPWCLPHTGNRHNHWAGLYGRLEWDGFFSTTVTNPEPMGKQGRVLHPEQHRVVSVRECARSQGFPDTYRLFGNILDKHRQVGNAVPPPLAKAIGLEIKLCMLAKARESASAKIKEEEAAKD
# Experimental: His-DNMT1 (182 kDa, human) was cloned, expressed and purified as described in Halby et al. (ChemBioChem 2012, 13, 157-65). The reaction was performed in a 10 μL total reaction volume in low volume NBS™ 384-well microplates (Corning), containing the tested compound (up to 1% DMSO), 1 μM of a SAM/[methyl-^3H] SAM (3 TBq/mmol, PerkinElmer) mix in a ratio of 3-to-1 (isotopic dilution 1*:3), 0.3 μM of biotinylated hemimethylated DNA duplex (5′-GATmCGCmCGATGmCGmCGAATmCGmCGATmCGATGmCGAT-3′ and BIOT-5′-[…]-3′), and 90 nM of DNMT1 in methylation buffer (20 mM HEPES pH 7.2, 1 mM EDTA, 50 mM KCl, 25 μg/mL BSA). The reaction was incubated at 37° C. for 2 hours. 8 μL are then transferred into a streptavidin 96-well scintillant coated Flashplate™ (PerkinElmer) containing 190 μL of 20 μM SAH in 50 mM Tris-HCl pH 7.4. The Flashplate™ was agitated at room temperature for 1 hour, washed three times with 200 μL of 0.05% Tween®-20 in 50 mM Tris-HCl pH 7.4, and read in 200 μL of 50 mM Tris-HCl pH 7.4 on TopCount NXT™ (PerkinElmer).
SMILES,inhibition at 1 µM [1],inhibition at 3.2 µM [1],inhibition at 0.1 µM [2],inhibition at 1 µM [2],inhibition at 5 µM [2],inhibition at 10 µM [2],"Reactivation fold of luciferase gene reporter, 0.1 μM [3]","Reactivation fold of luciferase gene reporter, 1 μM [3]","Reactivation fold of luciferase gene reporter, 5 μM [3]","Reactivation fold of luciferase gene reporter, 10 μM [3]",pEC50 [4],inhibition at 10 µM [4],inhibition at 32 µM [4],pEC50 [1],"EC50 ([2]; 96 h, treatment on days 1-3, viability on day 4 (ATPLite))",melting point
"CN1CCN(c2nc(NCCCc3ccccc3)c3ccc(OCC4CCN(CCNc5ccnc6ccccc56)CC4)cc3n2)CC1 [Compound C, 4-((3-phenylpropyl)amino)-7-((1-(2-(quinolin-4-ylamino)ethyl)piperidin-4-yl)methoxy)-2-(4-methylpiperazin-1-yl)quinazoline]",0%,43%,-3.1%,5.7%,99.1%,99.7%,1.1 ± 0.0 fold,1.7 ± 0.1 fold,0.1 ± 0.0 fold,0.0 ± 0.0 fold,4.64,0%,94%,–,–,–
"COc1cc2c(NC3CCN(Cc4ccccc4)CC3)nc(N3CCN(c4ccccc4)CC3)nc2cc1OCC1CCN(CCNc2ccnc3ccccc23)CC1 [E, N-(1-benzylpiperidin-4-yl)-6-methoxy-2-(4-phenylpiperazin-1-yl)-7-((1-(2-(quinolin-4-ylamino)ethyl)piperidin-4-yl)methoxy)quinazolin-4-amine]",74%,100%,-2.3%,15.4%,92.1%,99.8%,1.1 ± 0.0 fold,3.5 ± 0.0 fold,1.3 ± 1.2 fold,0.0 ± 0.0 fold,5.00,59%,100%,6.22,2.5 µM,124 to 126 °C
"CCN(CC)CCNc1nc(NCCCc2ccccc2)c2ccc(OCC3CCN(CCNc4ccnc5ccccc45)CC3)cc2n1 [Compound D, 4-((3-phenylpropyl)amino)-N^2-(2-(diethylamino)ethylenediamine)-7-((1-(2-(quinolin-4-ylamino)ethyl)piperidin-4-yl)methoxy)quinazoline]",52%,81%,-2.3%,13.2%,79.7%,99.5%,1.1 ± 0.0 fold,1.7 ± 0.0 fold,12.7 ± 0.6 fold,1.1 ± 1.0 fold,4.89,35%,98%,–,–,–
Clc1nc(NCCCc2ccccc2)c2ccc(OCC3CCN(CCNc4ccncc4)CC3)cc2n1 [Compound H],0%,32%,–,–,–,–,–,–,–,–,–,–,–,–,–,–
"Clc1nc(NCCCc2ccccc2)c2ccc(OCC3CCN(CCNc4ccnc5ccccc45)CC3)cc2n1 [Compound B, 4-((3-phenylpropyl)amino)-2-chloro-7-((1-(2-(quinolin-4-ylamino)ethyl)piperidin-4-yl)methoxy)quinazoline]",0%,73%,-1.7%,3.8%,95.9%,99.9%,1.1 ± 0.0 fold,1.4 ± 0.0 fold,5.8 ± 1.6 fold,0.0 ± 0.0 fold,4.72,5%,93%,–,–,–
"Oc1ccc2c(NCCCc3ccccc3)ncnc2c1CN1CCN(CCNc2ccnc3ccccc23)CC1 [Compound A, 4-((3-phenylpropyl)amino)-8-((1-(2-(quinolin-4-ylamino)ethyl)piperazin-1-ylmethyl))quinazoline-7-ol]",0%,18%,-0.8%,6.1%,29.7%,84.5%,1.1 ± 0.1 fold,1.2 ± 0.1 fold,4.4 ± 0.5 fold,6.0 ± 0.6 fold,–,0%,0%,–,–,–
"COc1cc2c(NCCNc3cccc4ccccc34)nc(N3CCN(c4ccccc4)CC3)nc2cc1OCC1CCN(CCNc2ccnc3ccccc23)CC1 [F, N^1-(6-methoxy-2-(4-phenylpiperazin-1-yl)-7-((1-(2-(quinolin-4-ylamino)ethyl)piperidin-4-yl)methoxy)quinazolin-4-yl)-N^2-(naphtalen-1-yl)ethane-1,2-diamine]",75%,84%,2%,31.9%,99.6%,99.9%,1.1 ± 0.0 fold,4.4 ± 0.4 fold,1.0 ± 0.8 fold,0.0 ± 0.0 fold,4.93,45%,93%,–,–,180 to 181 °C
